This is an account of results in PMC4706532, “Diarylthiophenes as inhibitors of the pore-forming protein perforin” (Bioorganic & Medicinal Chemistry Letters, 2016).

Usually melting point stands for the temperature of the solid-liquid transition. Broadly, the solubility is the concentration that dissolves in the medium under given conditions.

In brackets after ≈: the same amount, converted by molar mass.

Data set [1] deals with T1, recombinant perforin (Mus musculus, UniProt P10820).
T1 sequence (P10820 21-554): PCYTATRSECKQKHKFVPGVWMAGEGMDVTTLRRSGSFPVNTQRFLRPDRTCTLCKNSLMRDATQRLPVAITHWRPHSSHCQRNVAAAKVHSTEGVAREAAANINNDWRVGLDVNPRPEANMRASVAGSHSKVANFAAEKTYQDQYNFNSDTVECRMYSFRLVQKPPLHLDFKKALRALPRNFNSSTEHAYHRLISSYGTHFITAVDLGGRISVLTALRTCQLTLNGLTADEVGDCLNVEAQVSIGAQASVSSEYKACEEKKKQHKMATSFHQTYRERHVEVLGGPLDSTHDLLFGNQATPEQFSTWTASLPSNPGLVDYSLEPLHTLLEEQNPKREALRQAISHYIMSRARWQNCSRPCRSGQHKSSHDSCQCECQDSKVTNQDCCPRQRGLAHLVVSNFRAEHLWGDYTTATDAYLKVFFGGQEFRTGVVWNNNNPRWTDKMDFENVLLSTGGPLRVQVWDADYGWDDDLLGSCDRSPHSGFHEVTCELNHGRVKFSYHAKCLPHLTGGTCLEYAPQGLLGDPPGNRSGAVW
Nature of the data set: Inhibition of perforin-mediated lysis of Jurkat cells (51Cr release). Particulars: isolated perforin.
Experimental: The ability of the compounds to inhibit the lysis of nucleated (Jurkat T lymphoma) cells in the presence of 0.1% BSA, as measured by release of ^51Cr was measured. Jurkat target cells were labelled by incubation in medium with 100 µCi ^51Cr for one hour. The cells were then washed three times to remove unincorporated isotope and re-suspended at 1 x 10^5 cells per mL in RPMI buffer supplemented with 0.1% BSA. Each test compound was pre-incubated to concentrations of 20, 10, 5, 2.5 and 1.25 µM with recombinant perforin for 30 min with DMSO as a negative control. ^51Cr labelled Jurkat cells were then added and cells were incubated at 37 °C for 4 h. The supernatant was collected and assessed for its radioactive content on a gamma counter (Wallac Wizard 1470 automatic gamma counter). Each data point was performed in triplicate and an IC50 was calculated from the range of concentrations described to above.

The nature of data set [2]: Solubility in water. The settings on record: for solubility: water.
The nature of data set [3]: Plasma stability, human plasma. The settings on record: % parent remaining at 24 h, 37 °C. In kind it is in vitro ADME. On the procedure: (§1) Preliminary stability studies were carried out by incubation in human or mouse plasma at 37 °C with the percentage parent remaining measured at 24 h (Table 2). […] In mouse plasma the ratio of open to closed is 50:50%, while in human plasma this shifts to 90:10 due to the strong affinity of human serum albumin for the ring-opened form.[20] It is likely that the same phenomenon is operating in the present case and while not necessarily an issue for mouse studies, will need to be addressed in future work.
(§2) Incubation method - Mouse (CD-1, male) and human (pooled) plasma pH was adjusted to 7.4 with either 1M phosphoric acid or sodium hydroxide. Plasma was spiked with 100 uM of test compounds and divided into two parts; one part was immediately transferred to -80 °C (control), and the second part was incubated at 37 °C at 24 h.
(§3) At the end of the study duration, samples were transferred to -80 °C until ready to analyse by HPLC-DAD. On the day of analysis, control and incubated samples were thawed on wet ice and mixed.
(§4) Sample treatment for HPLC - 20 uL of samples were mixed with 80 uL (1:4 v/v) ice cold acetonitrile to precipitate the plasma proteins, centrifuged at 13,000 rpm for 5 min to obtain the clear supernatant. The supernatant was diluted with 0.01% formic acid– water (1:2 v/v) and 50 uL was injected onto the HPLC system (Agilent).
(§5) Calculation: The % loss was calculated based on peak area using the following formula: (peak area time “0”- peak area time “24h”)/peak area time “0” multiplied by 100. % Remaining = 100 - % loss.

The subject of data set [4] is perforin delivered by KHYG-1 NK cells. Nature of the data set: KHYG-1 cytotoxicity assay: lysis of K562 target cells by KHYG-1 NK cells (51Cr release). The class given is cell-based, human. On the procedure: The compounds were then evaluated for their ability to block the effect of perforin delivered by whole KHYG-1 NK cells (Table 2). Employing whole NK cells is a more rigorous model of conditions in vivo than the use of isolated recombinant protein since effector cell identification of the labelled target cell and formation of an immune synapse are required for perforin release. […] After co-incubation of inhibitor with KHYG-1 NK cells in medium for 30 min at room temperature, ^51Cr-labelled K562 leukaemia target cells were added and cell lysis evaluated after 4 h incubation at 37 °C by measuring ^51Cr release. […] Viable and dead cells were counted and percent viability calculated based on total cell count (for further details see Supplementary data). […] For the purposes of this work, compounds are classified as toxic if NK cell viability falls below 70%. This is due to the importance of CTLs and NK cells in the overall immunological response which means that it is essential that any pharmacological intervention allows rapid recovery of these cytotoxic effector cells for normal immunological function.
KHYG-1 cells were washed and re-suspended in RPMI + 0.1% BSA at 4 × 10^5 cells/mL, and an amount of 50 μL of KHYG-1 cells was dispensed to each well of a 96-well V-bottom plate. RPMI (50 μL) + 0.1% BSA or 10% (final concentration) of serum was added to each well. Then test compounds were added to KHYG-1 cells at various concentrations up to 20 μM and incubated at room temperature for […]. 1 × 10^6 K562 target cells were labelled with 75 μCi ^51Cr in 200 μL of RPMI for 90 min at 37 °C. Cells were washed as described above and re-suspended in 5 mL of RPMI + 0.1% BSA. An amount of 50 μL of ^51Cr labelled K562 leukaemia target cells was added to each well of the KHYG-1 plate (effector/target 2:1) and incubated at 37 °C for 4 h. ^51Cr release was assayed using a Skatron harvesting press and radioactivity estimated on a Wallac Wizard 1470 automatic γ counter (Turku, Finland). The percentage of specific cytotoxicity was calculated using the following formula:
% specific lysis = […]
(maximum release - spontaneous release)
and expressed as the mean of triplicate assays ± standard error of the mean.

The nature of data set [5]: Plasma stability, mouse plasma. In kind it is in vitro ADME. The settings on record: % parent remaining at 24 h, 37 °C. On the procedure: as §1, §2, §3, §4, §5

Consider `O=C1OCc2cc(-c3ccc(-c4ccccc4)s3)ccc21` [Compound 6], for which the melting point lay within 231 to 233 °C.
Same read-out and setting: the result for `Cc1ccccc1-c1ccc(-c2ccc3c(c2)COC3=O)s1` [Compound 7] reads 109 to 111 °C; that for `Cc1cccc(-c2ccc(-c3ccc4c(c3)COC4=O)s2)c1` [Compound 8], 192 to 194 °C.
The molecule `Cc1ccc(-c2ccc(-c3ccc4c(c3)COC4=O)s2)cc1` [Compound 9] gave a melting point of 184 to 186 °C.
The same measure, in the same setting: the result for `O=C1OCc2cc(-c3ccc(-c4ccccc4Cl)s3)ccc21` [Compound 10] reads 131 to 133 °C.
Same read-out and setting: the result for `O=C1OCc2cc(-c3ccc(-c4cccc(Cl)c4)s3)ccc21` [Compound 11] reads 207 to 209 °C; that for `O=C1OCc2cc(-c3ccc(-c4ccc(Cl)cc4)s3)ccc21` [Compound 12], 231 to 234 °C.
Turning to `COc1ccccc1-c1ccc(-c2ccc3c(c2)COC3=O)s1` [Compound 13], the melting point is 190 to 192 °C. The “Inhibition of perforin lytic activity in Jurkat assay (in words)” value (shortened to “Inhibition of perforin lytic activity”) in data set [1] was “no detectable inhibition”.
For `COc1cccc(-c2ccc(-c3ccc4c(c3)COC4=O)s2)c1` [Compound 14] the same measures were 165 to 167 °C and “no detectable inhibition”.
With `COc1ccc(-c2ccc(-c3ccc4c(c3)COC4=O)s2)cc1` [Compound 15], the melting point fell in the range of 224 to 227 °C.
Molecule `O=C1OCc2cc(-c3ccc(-c4cccc(O)c4)s3)ccc21` [Compound 18] had a melting point of 276 to 279 °C.
`O=C1OCc2cc(-c3ccc(-c4ccc(O)cc4)s3)ccc21` [Compound 19] displayed a melting point of 279 to 282 °C. Also, the “Inhibition of perforin lytic activity” value in data set [1] is “loses all activity”.
For `N#Cc1cccc(-c2ccc(-c3ccc4c(c3)COC4=O)s2)c1` [Compound 20] the same measures were 250 to 251 °C and “activity is lost altogether”.
`NC(=O)c1cccc(-c2ccc(-c3ccc4c(c3)COC4=O)s2)c1` [Compound 22] returned a melting point of 259 to 263 °C.
As to `NC(=O)c1ccc(-c2ccc(-c3ccc4c(c3)CNC4=O)s2)cc1` [Compound 23a], in data set [1], the “Inhibition of perforin lytic activity” value is given as “loss of activity”.
Molecule `CN1Cc2cc(-c3ccc(-c4ccc(C(N)=O)cc4)s3)ccc2C1=O` [Compound 23b] registered a melting point of 287 to 290 °C. Moreover, the “Inhibition of perforin lytic activity” value in data set [1] is given as “loss of activity”.
The corresponding values for `CNC(=O)c1ccc(-c2ccc(-c3ccc4c(c3)COC4=O)s2)cc1` [Compound 29] are 299 to 302 °C and “loss of efficacy”.
Molecule `CN(C)C(=O)c1ccc(-c2ccc(-c3ccc4c(c3)COC4=O)s2)cc1` [Compound 30] had a melting point of 290 to 292 °C. The “Inhibition of perforin lytic activity” value in data set [1] was “abolishes activity completely”.
As for `CN1CCN(C(=O)c2ccc(-c3ccc(-c4ccc5c(c4)COC5=O)s3)cc2)CC1` [Compound 31], the “Inhibition of perforin lytic activity” value in data set [1] is “abolishes activity completely”.
`CN(C)CCCNC(=O)c1ccc(-c2ccc(-c3ccc4c(c3)COC4=O)s2)cc1` [Compound 32] showed a melting point of 185 to 188 °C. In data set [1], the “Inhibition of perforin lytic activity” value was “poor activity or were inactive”.
In the case of `CCOC(=O)c1ccc(-c2ccc(-c3ccc4c(c3)COC4=O)s2)cc1O` [Compound 40], the melting point is 208 to 210 °C.
Turning to `O=C(NCCN1CCOCC1)c1ccc(-c2ccc(-c3ccc4c(c3)COC4=O)s2)cc1O` [Compound 49], the “Inhibition of perforin lytic activity” value in data set [1] was “poor activity or were inactive”.
Regarding `CN(C)CCNC(=O)c1ccc(-c2ccc(-c3ccc4c(c3)COC4=O)s2)cc1O` [Compound 50], the melting point was 242 to 245 °C. For the same molecule, the “Inhibition of perforin lytic activity” value in data set [1] was “poor activity or were inactive”.
With `O=C(NCCO)c1ccc(-c2ccc(-c3ccc4c(c3)COC4=O)s2)cc1O` [Compound 51], in data set [2], the concentration in solution (solubility) was 15.7 µg/mL (≈ 39.7 µM).
Take `CC(O)CNC(=O)c1ccc(-c2ccc(-c3ccc4c(c3)COC4=O)s2)cc1O` (stereo not drawn) [Compound 52]: the melting point lay in the range of 241 to 244 °C.
Take `NC(=O)CNC(=O)c1ccc(-c2ccc(-c3ccc4c(c3)COC4=O)s2)cc1O` [Compound 53]: in data set [2], the concentration in solution (solubility) was 4.7 µg/mL (≈ 11.5 µM).
For the molecule `NC(=O)c1ccc(-c2ccc(-c3ccc4c(c3)COC4=O)s2)cc1N` [Compound 55], in data set [2], the concentration in solution (solubility) was 9.4 µg/mL (≈ 26.8 µM).
`Nc1cc(-c2ccc(-c3ccc4c(c3)COC4=O)s2)ccc1C(=O)NCCN1CCOCC1` [Compound 56] displayed a melting point of 209 to 211 °C. Moreover, in data set [1], the “Inhibition of perforin lytic activity” value is “poor activity or were inactive”.
For `CN(C)CCNC(=O)c1ccc(-c2ccc(-c3ccc4c(c3)COC4=O)s2)cc1N` [Compound 57] the same measures were 185 to 188 °C and “poor activity or were inactive”.
In turn, `CSc1ccc(-c2ccc(-c3ccc4c(c3)COC4=O)s2)cc1` [Compound 58] yielded a melting point of 239 to 241 °C.
Same read-out and setting: to `CS(=O)(=O)c1ccc(-c2ccc(-c3ccc4c(c3)COC4=O)s2)cc1` [Compound 60] belongs 278 to 280 °C.
Still for that read-out and setting: to `NS(=O)(=O)c1cccc(-c2ccc(-c3ccc4c(c3)COC4=O)s2)c1` [Compound 61] belongs 273 to 276 °C.
Regarding `CC(C)(C)NS(=O)(=O)c1ccc(-c2ccc(-c3ccc4c(c3)COC4=O)s2)cc1` [Compound 62], the melting point was 255 to 257 °C.
With `CS(=O)(=O)Nc1ccc(-c2ccc(-c3ccc4c(c3)COC4=O)s2)cc1` [Compound 63], the “Plasma stability (% at 24 h) Human” value in data set [3] is 70%. The “KHYG-1 inhibition (% at 20 μM)” value in data set [4] (compound 20 μM, perforin-induced lysis of K562 target cells co-incubated with KHYG-1 human NK cells, vs untreated control) is “No activity”. In addition, the “Activity against perforin delivered by whole KHYG-1 NK cells (in words)” value in data set [4] (whole human NK cells, K562 targets) is recorded as “poor or no activity”. The “Plasma stability (% at 24 h) Mouse” value in data set [5] turned out to be 80%.
For `O=C1OCc2cc(-c3ccc(-c4ccncc4)s3)ccc21` [Compound 70], the melting point is 260 to 261 °C.
Take `O=C1OCc2cc(-c3ccc(-c4ccc5c(c4)COC5=O)s3)ccc21` [Compound 71]: the “Solubility (in words)” value in data set [2] is given as “extremely insoluble”. Besides, the “Inhibition of perforin lytic activity” value in data set [1] was “only moderately potent”.
